# Test results reported in patent US11878973B2, “Bicyclic compounds and their uses” (NOVARTIS AG, priority 2021, dated 2024).
# Assays:
# WRN helicase = WRN helicase (Homo sapiens (Human), UniProt Q14191); assay: In vitro enzymatic activity assay on WRN helicase (DNA dependent ATPase assay, ADP-Glo); type: biochemical; conditions: geometric means of at least 2 determinations; read-out: WRN ATPase Activity (IC50)
# In short: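 The WRN helicase core (aa N517-P1238), 10 nM, hydrolysed 300 µM ATP in the presence of 0.2 nM FLAP26 DNA (Tris pH 7.5, 2 mM MgCl2, 50 mM NaCl) for 30 min at room temperature. ADP formed was quantified by ADP-Glo luminescence.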
# SW48 cells = assay: Proliferation assay SW48 (CellTiterGlo, 96 hours); conditions: Homo sapiens, SW48, read-out: Proliferation Assay SW48 (GI50)
# DLD1-WRN-KO cells = assay: Proliferation assay DLD1-WRN-KO (CellTiterGlo, 96 hours; off-target effects); conditions: Homo sapiens, read-out: Proliferation Assay DLD1-WRN-KO (GI50)
# Chain of WRN helicase (Q14191 517-1238): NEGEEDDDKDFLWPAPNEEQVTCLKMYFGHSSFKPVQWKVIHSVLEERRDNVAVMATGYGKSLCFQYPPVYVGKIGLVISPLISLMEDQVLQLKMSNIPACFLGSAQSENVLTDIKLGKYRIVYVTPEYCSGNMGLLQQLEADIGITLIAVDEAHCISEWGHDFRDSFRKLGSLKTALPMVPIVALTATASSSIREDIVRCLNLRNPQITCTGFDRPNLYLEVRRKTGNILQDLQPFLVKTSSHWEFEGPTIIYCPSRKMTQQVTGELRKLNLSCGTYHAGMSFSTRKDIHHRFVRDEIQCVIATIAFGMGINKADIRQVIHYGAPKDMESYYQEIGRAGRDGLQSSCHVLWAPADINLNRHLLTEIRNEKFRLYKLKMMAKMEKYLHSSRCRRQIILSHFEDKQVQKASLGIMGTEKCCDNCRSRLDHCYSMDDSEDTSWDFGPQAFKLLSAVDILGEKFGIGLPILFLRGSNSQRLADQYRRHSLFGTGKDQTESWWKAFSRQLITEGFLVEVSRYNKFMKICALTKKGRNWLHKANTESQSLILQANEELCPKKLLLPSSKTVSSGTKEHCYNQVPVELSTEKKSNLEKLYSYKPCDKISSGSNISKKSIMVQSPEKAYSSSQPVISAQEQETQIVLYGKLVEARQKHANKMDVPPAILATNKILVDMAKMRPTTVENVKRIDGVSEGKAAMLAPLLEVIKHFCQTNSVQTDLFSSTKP
Compound,IC50 (WRN helicase) [nM],GI50 (SW48 cells) [nM],GI50 (DLD1-WRN-KO cells) [nM]
"CCc1c(N2CCN(C(=O)c3ncccc3O)CC2)c(=O)n2nc(N3CC4CC(C3)O4)nc2n1CC(=O)Nc1ccc(C(F)(F)F)cc1C [Example 21, 2-(2-(6-oxa-3-azabicyclo[3.1.1]heptan-3-yl)-5-ethyl-6-(4-(3-hydroxypicolinoyl)piperazin-1-yl)-7-oxo-[1,2,4]triazolo[1,5-a]pyrimidin-4(7H)-yl)-N-(2-methyl-4-(trifluoromethyl)phenyl)acetamide]",180,1070,> 10000
"Cc1c(N2CCN(C(=O)c3ncccc3O)CC2)c(=O)n2nc(N3CC4CC(C3)O4)nc2n1CC(=O)Nc1ccc(C(F)(F)F)cc1F [Example 22, 2-(2-(6-oxa-3-azabicyclo[3.1.1]heptan-3-yl)-6-(4-(3-hydroxypicolinoyl)piperazin-1-yl)-5-methyl-7-oxo-[1,2,4]triazolo[1,5-a]pyrimidin-4(7H)-yl)-N-(2-fluoro-4-(trifluoromethyl)phenyl)acetamide]",600,2630,> 10000
"CCc1c(N2CCN(C(=O)c3ncccc3O)CC2)c(=O)n2nc(N3C[C@@H](F)[C@@H](F)C3)nc2n1CC(=O)Nc1ccc(C(F)(F)F)cc1C [Example 23, 2-(2-((3R,4S)-3,4-difluoropyrrolidin-1-yl)-5-ethyl-6-(4-(3-hydroxypicolinoyl)piperazin-1-yl)-7-oxo-[1,2,4]triazolo[1,5-a]pyrimidin-4(7H)-yl)-N-(2-methyl-4-(trifluoromethyl)phenyl)acetamide]",260,1540,> 10000
"CCc1c(N2CCN(C(=O)c3ncnc(C)c3O)CC2)c(=O)n2nc(C3=CCCCO3)nc2n1CC(=O)Nc1ccc(C(F)(F)F)nc1Cl [Example 28, N-(2-chloro-6-(trifluoromethyl)pyridin-3-yl)-2-(2-(3,4-dihydro-2H-pyran-6-yl)-5-ethyl-6-(4-(5-hydroxy-6-methylpyrimidine-4-carbonyl)piperazin-1-yl)-7-oxo-[1,2,4]triazolo[1,5-a]pyrimidin-4(7H)-yl)acetamide]",130,100,> 10000
"CCc1c(N2CCN(C(=O)c3nccc(Cl)c3O)CC2)c(=O)n2nc(C3=CCCCO3)nc2n1CC(=O)Nc1ccc(C(F)(F)F)nc1Cl [Example 30, 2-(6-(4-(4-chloro-3-hydroxypicolinoyl)piperazin-1-yl)-2-(3,4-dihydro-2H-pyran-6-yl)-5-ethyl-7-oxo-[1,2,4]triazolo[1,5-a]pyrimidin-4(7H)-yl)-N-(2-chloro-6-(trifluoromethyl)pyridin-3-yl)acetamide]",140,160,> 10000
"CCc1c(N2CCN(C(=O)c3ncnc(C)c3O)CC2)c(=O)n2nc(C3=CCCCO3)nc2n1CC(=O)Nc1ccc(C(F)(F)F)nc1C [Example 31, 2-(2-(3,4-dihydro-2H-pyran-6-yl)-5-ethyl-6-(4-(5-hydroxy-6-methylpyrimidine-4-carbonyl)piperazin-1-yl)-7-oxo-[1,2,4]triazolo[1,5-a]pyrimidin-4(7H)-yl)-N-(2-methyl-6-(trifluoromethyl)pyridin-3-yl)acetamide]",230,320,> 10000
"CCc1c(N2CCN(C(=O)c3ncccc3O)CC2)c(=O)n2nc(C3=CCOCC3)nc2n1CC(=O)Nc1cnc(C(F)(F)F)cc1Cl [Example 33, N-(4-chloro-6-(trifluoromethyl)pyridin-3-yl)-2-(2-(3,6-dihydro-2H-pyran-4-yl)-5-ethyl-6-(4-(3-hydroxypicolinoyl)piperazin-1-yl)-7-oxo-[1,2,4]triazolo[1,5-a]pyrimidin-4(7H)-yl)acetamide]",260,220,> 10000
"CCc1c(N2CCN(C(=O)c3ncccc3O)CC2)c(=O)n2nc(C3=CCOCC3)nc2n1CC(=O)Nc1cnc(C(F)(F)F)cc1C [Example 34, 2-(2-(3,6-dihydro-2H-pyran-4-yl)-5-ethyl-6-(4-(3-hydroxypicolinoyl)piperazin-1-yl)-7-oxo-[1,2,4]triazolo[1,5-a]pyrimidin-4(7H)-yl)-N-(4-methyl-6-(trifluoromethyl)pyridin-3-yl)acetamide]",250,280,> 10000
"CCc1c(N2CCN(C(=O)c3ncccc3O)CC2)c(=O)n2nc(C3=CCOCC3)nc2n1CC(=O)Nc1ccc(C(F)(F)F)nc1C [Example 35, 2-(2-(3,6-dihydro-2H-pyran-4-yl)-5-ethyl-6-(4-(3-hydroxypicolinoyl)piperazin-1-yl)-7-oxo-[1,2,4]triazolo[1,5-a]pyrimidin-4(7H)-yl)-N-(2-methyl-6-(trifluoromethyl)pyridin-3-yl)acetamide]",190,400,> 10000
"CCc1c(N2CCN(C(=O)c3nccc(Cl)c3O)CC2)c(=O)n2nc(C3=CCOCC3)nc2n1CC(=O)Nc1ccc(C(F)(F)F)nc1C [Example 36, 2-(6-(4-(4-chloro-3-hydroxypicolinoyl)piperazin-1-yl)-2-(3,6-dihydro-2H-pyran-4-yl)-5-ethyl-7-oxo-[1,2,4]triazolo[1,5-a]pyrimidin-4(7H)-yl)-N-(2-methyl-6-(trifluoromethyl)pyridin-3-yl)acetamide]",930,1780,> 10000

# The remaining compounds from weak to strong by IC50 (WRN helicase), led by results:
IC50 (WRN helicase) [nM],GI50 (SW48 cells) [nM],GI50 (DLD1-WRN-KO cells) [nM],Compound
130,270,> 10000,"CCc1c(N2CCN(C(=O)c3ncccc3O)CC2)c(=O)n2nc(C3=COCCO3)nc2n1CC(=O)Nc1ccc(C(F)(F)F)nc1Cl [Example 27, N-(2-chloro-6-(trifluoromethyl)pyridin-3-yl)-2-(2-(5,6-dihydro-1,4-dioxin-2-yl)-5-ethyl-6-(4-(3-hydroxypicolinoyl)piperazin-1-yl)-7-oxo-[1,2,4]triazolo[1,5-a]pyrimidin-4(7H)-yl)acetamide]"
110,80,> 10000,"CCc1c(N2CCN(C(=O)c3ncncc3O)CC2)c(=O)n2nc(C3=CCOCC3)nc2n1CC(=O)Nc1ccc(C(F)(F)F)cc1Cl [Example 44, N-(2-chloro-4-(trifluoromethyl)phenyl)-2-(2-(3,6-dihydro-2H-pyran-4-yl)-5-ethyl-6-(4-(5-hydroxypyrimidine-4-carbonyl)piperazin-1-yl)-7-oxo-[1,2,4]triazolo[1,5-a]pyrimidin-4(7H)-yl)acetamide]"
90,50,> 10000,"CCc1c(N2CCN(C(=O)c3ncccc3O)CC2)c(=O)n2nc(C3=CCCCO3)nc2n1CC(=O)Nc1ccc(C(F)(F)F)nc1Cl [Example 29, N-(2-chloro-6-(trifluoromethyl)pyridin-3-yl)-2-(2-(3,4-dihydro-2H-pyran-6-yl)-5-ethyl-6-(4-(3-hydroxypicolinoyl)piperazin-1-yl)-7-oxo-[1,2,4]triazolo[1,5-a]pyrimidin-4(7H)-yl)acetamide]"
60,60,7600,"CCc1c(N2CCN(C(=O)c3ncccc3O)CC2)c(=O)n2nc(C3=CCCCO3)nc2n1CC(=O)Nc1ccc(C(F)(F)F)cc1Cl [Example 32, N-(2-chloro-4-(trifluoromethyl)phenyl)-2-(2-(3,4-dihydro-2H-pyran-6-yl)-5-ethyl-6-(4-(3-hydroxypicolinoyl)piperazin-1-yl)-7-oxo-[1,2,4]triazolo[1,5-a]pyrimidin-4(7H)-yl)acetamide]"
40,50,> 10000,"CCc1c(N2CCN(C(=O)c3ncccc3O)CC2)c(=O)n2nc(C3=CCOCC3)nc2n1CC(=O)Nc1ccc(C(F)(F)F)c(F)c1C [Example 38, 2-(2-(3,6-dihydro-2H-pyran-4-yl)-5-ethyl-6-(4-(3-hydroxypicolinoyl)piperazin-1-yl)-7-oxo-[1,2,4]triazolo[1,5-a]pyrimidin-4(7H)-yl)-N-(3-fluoro-2-methyl-4-(trifluoromethyl)phenyl)acetamide]"
40,50,> 10000,"CCc1c(N2CCN(C(=O)c3nccc(Cl)c3O)CC2)c(=O)n2nc(C3=CCOCC3)nc2n1CC(=O)Nc1ccc(C(F)(F)F)cc1Cl [Example 39, 2-(6-(4-(4-chloro-3-hydroxypicolinoyl)piperazin-1-yl)-2-(3,6-dihydro-2H-pyran-4-yl)-5-ethyl-7-oxo-[1,2,4]triazolo[1,5-a]pyrimidin-4(7H)-yl)-N-(2-chloro-4-(trifluoromethyl)phenyl)acetamide]"
40,40,> 10000,"CCc1c(N2CCN(C(=O)c3nc(C)cc(F)c3O)CC2)c(=O)n2nc(C3=CCOCC3)nc2n1CC(=O)Nc1ccc(C(F)(F)F)cc1Cl [Example 41, N-(2-chloro-4-(trifluoromethyl)phenyl)-2-(2-(3,6-dihydro-2H-pyran-4-yl)-5-ethyl-6-(4-(4-fluoro-3-hydroxy-6-methylpicolinoyl)piperazin-1-yl)-7-oxo-[1,2,4]triazolo[1,5-a]pyrimidin-4(7H)-yl)acetamide]"
20,30,> 10000,"CCc1c(N2CCN(C(=O)c3nccc(Cl)c3O)CC2)c(=O)n2nc(C3=CCOCC3)nc2n1CC(=O)Nc1ccc(C(F)(F)F)c(F)c1C [Example 37, 2-(6-(4-(4-chloro-3-hydroxypicolinoyl)piperazin-1-yl)-2-(3,6-dihydro-2H-pyran-4-yl)-5-ethyl-7-oxo-[1,2,4]triazolo[1,5-a]pyrimidin-4(7H)-yl)-N-(3-fluoro-2-methyl-4-(trifluoromethyl)phenyl)acetamide]"
20,30,> 10000,"CCc1c(N2CCN(C(=O)c3nccc(F)c3O)CC2)c(=O)n2nc(C3=CCOCC3)nc2n1CC(=O)Nc1ccc(C(F)(F)F)cc1Cl [Example 40, N-(2-chloro-4-(trifluoromethyl)phenyl)-2-(2-(3,6-dihydro-2H-pyran-4-yl)-5-ethyl-6-(4-(4-fluoro-3-hydroxypicolinoyl)piperazin-1-yl)-7-oxo-[1,2,4]triazolo[1,5-a]pyrimidin-4(7H)-yl)acetamide]"
